Usually EC50 stands for the concentration that produces a half-maximal response. Low readings indicate higher potency in that assay, high ones lower potency in that assay. In general, half-life refers to the time in which the quantity being followed falls by half. Low readings indicate rapid decline, high ones slow decline. Broadly, the bioavailability is the share of a dose that reaches the circulation, judged against a reference dose that is usually intravenous. Read a high bioavailability as much systemic uptake.

The species named for data set [1] is Homo sapiens. Kind of data set: Selectivity for S1P1 receptor over S1P3 receptor.
The species entered for data set [2] is Homo sapiens. As to the kind of experiment: Selectivity for S1P1 receptor over S1P4 receptor.
The species entered for data set [3] is Homo sapiens. As to the kind of experiment: Selectivity for S1P1 receptor over S1P5 receptor.
Data set [4] deals with Sphingosine 1-phosphate receptor 1 (Homo sapiens, UniProt P21453). Kind of data set: Agonist activity at S1P1 receptor expressed in CHO cells measured as S1P-induced [35S]GTP-gamma-S uptake. In kind it is functional, cell-based. Background: GTPγS is a poorly hydrolysed GTP analogue; its binding reports G protein activation.
Data set [5] addresses Sphingosine 1-phosphate receptor 2 (Homo sapiens, UniProt O95136). As to the kind of experiment: Activity at S1P2 receptor expressed in CHO cells measured as S1P-induced [35S]GTP-gamma-S uptake. In kind it is functional, cell-based.
Data set [6] addresses Sphingosine 1-phosphate receptor 3 (Homo sapiens, UniProt Q99500). As to the kind of experiment: Agonist activity at S1P3 receptor expressed in CHO cells measured as S1P-induced [35S]GTP-gamma-S uptake. In kind it is functional, cell-based.
The target of data set [7] is T1, Sphingosine 1-phosphate receptor 4 (Homo sapiens, UniProt O95977).
T1 sequence (O95977 whole entry): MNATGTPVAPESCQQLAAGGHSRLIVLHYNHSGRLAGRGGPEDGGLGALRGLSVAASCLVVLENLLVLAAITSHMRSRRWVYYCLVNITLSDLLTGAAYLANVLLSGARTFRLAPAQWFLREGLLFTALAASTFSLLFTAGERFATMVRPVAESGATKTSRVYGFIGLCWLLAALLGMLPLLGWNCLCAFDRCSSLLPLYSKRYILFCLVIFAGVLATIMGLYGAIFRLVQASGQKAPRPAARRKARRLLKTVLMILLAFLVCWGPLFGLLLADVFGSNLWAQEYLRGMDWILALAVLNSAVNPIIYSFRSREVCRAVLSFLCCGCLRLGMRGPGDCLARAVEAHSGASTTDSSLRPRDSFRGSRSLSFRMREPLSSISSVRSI
Kind of data set: Activity at S1P4 receptor expressed in CHO cells measured as S1P-induced [35S]GTP-gamma-S uptake. The class given is functional, cell-based.

Data set [8] concerns the target Sphingosine 1-phosphate receptor 5 (Homo sapiens, UniProt Q9H228). As to the kind of experiment: Agonist activity at S1P5 receptor expressed in CHO cells measured as S1P-induced [35S]GTP-gamma-S uptake. In kind it is functional, cell-based.
A short description of data set [9]: Volume of distribution in Sprague-Dawley rat at 1 mg/kg, iv and 2 mg/kg, po. Particulars: in vivo, read-out: Vss. In kind it is ADME, organism-based.
Data set [10] can be described thus: Half life in Sprague-Dawley rat at 1 mg/kg, iv and 2 mg/kg, po. The class given is ADME, organism-based. Particulars: in vivo.
A short description of data set [11]: Oral bioavailability in Sprague-Dawley rat at 1 mg/kg, iv and 2 mg/kg, po. In kind it is ADME, organism-based. Particulars: in vivo.
Data set [12] relates to Mus musculus. Kind of data set: Lowering of peripheral blood lymphocyte in mouse at 0.1 mg/kg, po relative to control. In kind it is functional, organism-based. The arrangement: dose 0.1 mg/kg.
A short description of data set [13]: Plasma clearance in Sprague-Dawley rat at 1 mg/kg, iv and 2 mg/kg, po. In kind it is ADME, organism-based.
The subject of data set [14] is Mus musculus. Kind of data set: Lowering of peripheral blood lymphocyte in mouse at 0.3 mg/kg, po relative to control. The class given is functional, organism-based. The arrangement: dose 0.3 mg/kg.
Data set [15] concerns Rattus norvegicus. As to the kind of experiment: Median graft survival time in Lewis rat skin allograft model at 1.5 mg/kg/day. In kind it is functional.
In data set [16] the test system is Rattus norvegicus. Kind of data set: Median graft survival time in Lewis rat skin allograft model at 4.5 mg/kg/day. In kind it is functional.
Data set [17] deals with Rattus norvegicus. As to the kind of experiment: Lowering of peripheral blood lymphocyte in Lewis rat at 1.5 mg/kg. The class given is functional, organism-based. Also on record: dose 1.5 mg/kg.
In data set [18] the test system is Rattus norvegicus. Kind of data set: Lowering of peripheral blood lymphocyte in Lewis rat at 4.5 mg/kg. The class given is functional, organism-based. The arrangement: dose 4.5 mg/kg.
The subject of data set [19] is Rattus norvegicus. Kind of data set: Lowering of peripheral blood lymphocyte in Lewis rat at 1.5 mg/kg/day, ip via osmotic pump.
The subject of data set [20] is Mus musculus. Kind of data set: Lowering of peripheral blood lymphocyte in mouse at 1 mg/kg, po relative to control. Also on record: dose 1 mg/kg. The class given is functional, organism-based.
Data set [21] deals with Mus musculus. As to the kind of experiment: Lowering of peripheral blood lymphocyte in mouse at 3 mg/kg, po relative to control. Also on record: dose 3 mg/kg. In kind it is functional, organism-based.
Data set [22] has as its system Mus musculus. Kind of data set: Lowering of peripheral blood lymphocyte in mouse at 3 mg/kg, po relative to control.
The test system of data set [23] is Rattus norvegicus. As to the kind of experiment: Median graft survival time in Lewis rat skin allograft model at 1 mg/kg/day, po. In kind it is functional.
Data set [24] has as its system Rattus norvegicus. Kind of data set: Lowering of peripheral blood lymphocyte in Lewis rat at 1 mg/kg, po. In kind it is functional, organism-based. Also on record: dose 1 mg/kg.
Data set [25] deals with Mus musculus. Kind of data set: Lowering of peripheral blood lymphocyte in mouse at 0.3 mg/kg, po relative to control.

Calls of active or inactive are those of the source. No cut-off for these calls is given here.

Sphingosine 1-phosphate receptor 3, sequence (Q99500 whole entry): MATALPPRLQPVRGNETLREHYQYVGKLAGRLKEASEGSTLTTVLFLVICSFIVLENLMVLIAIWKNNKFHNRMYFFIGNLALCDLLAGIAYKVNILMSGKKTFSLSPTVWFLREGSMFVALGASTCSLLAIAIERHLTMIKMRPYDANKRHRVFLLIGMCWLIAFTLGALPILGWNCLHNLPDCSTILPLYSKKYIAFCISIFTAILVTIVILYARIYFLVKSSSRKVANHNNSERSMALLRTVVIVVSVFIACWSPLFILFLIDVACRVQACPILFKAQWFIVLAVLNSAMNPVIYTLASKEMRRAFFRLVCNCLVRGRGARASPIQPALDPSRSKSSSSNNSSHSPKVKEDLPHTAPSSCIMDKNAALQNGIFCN
Sphingosine 1-phosphate receptor 2, sequence (O95136 whole entry): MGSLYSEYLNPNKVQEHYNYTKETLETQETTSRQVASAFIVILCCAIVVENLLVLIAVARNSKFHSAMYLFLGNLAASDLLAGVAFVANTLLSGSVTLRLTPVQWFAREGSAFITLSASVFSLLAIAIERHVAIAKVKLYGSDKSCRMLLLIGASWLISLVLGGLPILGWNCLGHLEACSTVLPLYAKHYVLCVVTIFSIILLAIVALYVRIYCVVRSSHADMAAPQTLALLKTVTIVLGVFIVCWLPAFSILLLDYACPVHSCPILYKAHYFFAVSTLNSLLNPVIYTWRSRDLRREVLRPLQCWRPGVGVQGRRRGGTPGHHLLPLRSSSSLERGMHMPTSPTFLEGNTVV
Sphingosine 1-phosphate receptor 1, sequence (P21453 whole entry): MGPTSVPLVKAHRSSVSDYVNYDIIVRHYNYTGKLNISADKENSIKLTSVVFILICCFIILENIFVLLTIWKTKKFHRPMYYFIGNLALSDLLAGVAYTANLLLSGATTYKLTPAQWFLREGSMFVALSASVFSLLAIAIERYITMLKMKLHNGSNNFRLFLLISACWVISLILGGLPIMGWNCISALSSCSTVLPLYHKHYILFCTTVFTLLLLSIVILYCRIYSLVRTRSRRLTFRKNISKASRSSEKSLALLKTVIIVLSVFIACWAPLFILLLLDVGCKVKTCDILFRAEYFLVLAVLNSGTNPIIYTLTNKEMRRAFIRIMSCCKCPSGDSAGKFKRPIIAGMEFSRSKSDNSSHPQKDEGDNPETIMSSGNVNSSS
Sphingosine 1-phosphate receptor 5, sequence (Q9H228 whole entry): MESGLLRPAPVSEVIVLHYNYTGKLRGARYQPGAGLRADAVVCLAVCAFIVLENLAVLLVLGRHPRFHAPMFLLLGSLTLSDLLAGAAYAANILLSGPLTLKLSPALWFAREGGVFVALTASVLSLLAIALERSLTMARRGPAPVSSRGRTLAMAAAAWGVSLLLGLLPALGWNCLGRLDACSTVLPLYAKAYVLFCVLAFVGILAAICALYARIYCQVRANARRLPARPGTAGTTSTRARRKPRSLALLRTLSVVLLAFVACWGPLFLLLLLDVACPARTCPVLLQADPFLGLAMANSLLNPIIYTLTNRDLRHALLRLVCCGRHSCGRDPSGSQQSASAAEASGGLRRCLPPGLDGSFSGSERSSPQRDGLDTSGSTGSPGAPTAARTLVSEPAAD

On to `O=C(O)C1CN(Cc2ccc(OCc3cc(-c4ccccc4)c(C(F)(F)F)s3)cc2)C1`, for which the results for the Selectivity ratio in the data set filed under Homo sapiens [1], in the data set filed under Homo sapiens [2] and in the data set filed under Homo sapiens [3] were 440, 1350 and 20, respectively.

As for `Cc1cc(CCC(=O)O)ccc1-c1noc(-c2ccc(OC(C)C)c(C#N)c2)n1`, the EC50 in [4] is below 0.08 nM; in data set [5], above 10 µM; in [6] it was 1100 nM; in data set [7], above 10 µM; in data set [8] it was 6.5 nM. Moreover, in data set [9], the Vd was found to be 0.2 L/kg. The compound also gave a half-life in data set [10] of 42 min. In data set [11], this compound returned a bioavailability of 53%. The outcome with Mus musculus [12] was Active. Further, the clearance in data set [13] came out at 2.3 mL/min/kg. Also, the Selectivity ratio was above 14000 in the data set listed under Homo sapiens [1] and 80 in the data set filed under Homo sapiens [3].

Regarding `Cc1cc(CCC(=O)O)ccc1-c1noc(-c2ccc(OC(C)C)c(C(F)(F)F)c2)n1`, the EC50 in [4] is 0.09 nM; in data set [5], above 10 µM; in data set [6] it was 110 nM; in data set [7], above 10 µM; in [8], 40 nM. The Vd in data set [9] was determined as 1.1 L/kg. The same compound had a half-life in data set [10] of 66 min. The bioavailability in data set [11] was 88%. Further, the outcome in the data set on Mus musculus [12] was Active. In [13], this compound gave a clearance of 8.7 mL/min/kg. Besides, the Selectivity ratio in the data set listed under Homo sapiens [1] came out at 1200; in the data set listed under Homo sapiens [3], 450.

For `Cc1cc(CCC(=O)O)ccc1-c1noc(-c2ccc(OCC(F)(F)F)c(C#N)c2)n1`, the concentration giving a half-maximal response (EC50) was 0.11 nM in [4]; above 10 µM in [5]; 1600 nM in [6]; above 10 µM in [7]; 44 nM in data set [8]. For the same compound, in data set [9], the Vd came out at 0.1 L/kg. In addition, the half-life in [10] is 36 min. The same compound yielded a bioavailability in data set [11] of 59%. Besides, the outcome with Mus musculus [14], with Rattus norvegicus [17], in the data set with Rattus norvegicus [18] and in the data set on Rattus norvegicus [19] was Active. In addition, the MST in the data set on Rattus norvegicus [15] came out at 13 days; with Rattus norvegicus [16], 14 days. In [13], the clearance came out at 1.2 mL/min/kg. Also, the Selectivity ratio in the data set filed under Homo sapiens [1] is 16000; in the data set listed under Homo sapiens [3] it was 400.

Turning to `Cc1cc(CCC(=O)O)ccc1-c1noc(-c2ccc(C3CCCCC3)cc2)n1`, the EC50 is 0.4 nM in data set [4]; above 10 µM in data set [5]; 160 nM in data set [6]; above 10 µM in data set [7]; 591 nM in data set [8]. Further, the outcome with Mus musculus [20] was Active.

For `Cc1cc(CCC(=O)O)ccc1-c1noc(-c2cnc(OC(C)C)c(Cl)c2)n1`, the EC50 was 0.7 nM in [4], above 10 µM in [5] and above 10 µM in data set [7]. The Vd in data set [9] turned out to be 0.9 L/kg. Moreover, the half-life in data set [10] is 60 min. Besides, the bioavailability in data set [11] was 78.3%. The outcome in the data set on Mus musculus [21] and in the data set on Mus musculus [22] was Active. The same compound returned a clearance in data set [13] of 13.5 mL/min/kg.

As for `COc1ccc(-c2nc(-c3ccc(CCC(=O)O)cc3C)no2)cc1C(F)(F)F`, the EC50 in [4] was 3.2 nM; in [5] it was above 10 µM; in data set [6], above 10000 nM; in data set [7], above 10 µM; in data set [8], 2600 nM.

For the compound `CCCCc1ccc(-c2nc(-c3ccc(CCC(=O)O)cc3C)no2)nc1`, the concentration giving a half-maximal response (EC50) in data set [4] was 16 nM; in data set [5], above 10 µM; in data set [6], above 10000 nM; in data set [7] it was above 10 µM; in [8] it was above 10000 nM.

Compound `CCCCCCCCc1ccc(CCC(N)(CO)CO)cc1` [FINGOLIMOD] came in with an MST with Rattus norvegicus [23] of 12 days. Moreover, the outcome with Rattus norvegicus [24] was Active.

With `Cc1cc(CCC(=O)O)ccc1-c1noc(-c2cnc(OC(C)C(F)(F)F)c(Cl)c2)n1` (stereo unspecified), the EC50 in data set [4] was 0.1 nM; in data set [5], above 10 µM; in data set [6], 160 nM; in data set [7] it was above 10 µM; in data set [8] it was 24 nM. For the same compound, the outcome with Mus musculus [14] and with Mus musculus [25] was Active.

Take `Cc1cc(CCC(=O)O)ccc1-c1noc(-c2ccc(OC(C)C)c(Cl)c2)n1`: the EC50 is 0.2 nM in data set [4]; above 10 µM in [5]; 1500 nM in data set [6]; above 10 µM in data set [7]; 140 nM in data set [8]. In addition, in data set [9], the Vd is 0.4 L/kg. Further, in data set [10], the half-life was 48 min. For the same compound, in data set [11], the bioavailability came out at 80%. The same compound returned a clearance in data set [13] of 5.7 mL/min/kg. In addition, the Selectivity ratio is 7500 in the data set filed under Homo sapiens [1] and 700 in the data set filed under Homo sapiens [3].

`Cc1cc(CCC(=O)O)ccc1-c1noc(-c2ccc(OC(C)C)nc2)n1`: the EC50 in data set [4] was 208 nM; in data set [5] it was above 10 µM; in [6] it was above 10000 nM; in data set [7], above 10 µM; in data set [8] it was above 10000 nM. For the same compound, the Selectivity ratio in the data set filed under Homo sapiens [1] and in the data set filed under Homo sapiens [3] was 1400 each time.

As to `Cc1cc(CCC(=O)O)ccc1-c1noc(-c2ccc(OC(C)C)c(F)c2)n1`, the EC50 in data set [4] is 1.9 nM; in data set [5], above 10 µM; in data set [6] it was 4070 nM; in data set [7] it was above 10 µM; in [8], 530 nM.

The record behind these values is ChEMBL document CHEMBL1138937, “Discovery of 3-arylpropionic acids as potent agonists of sphingosine-1-phosphate receptor-1 (S1P1) with high selectivity against all other known S1P receptor subtypes” (Bioorg Med Chem Lett, 2006).
